Assay results published in PMC13600255 (Journal of the American Chemical Society, 2025).
“Also recorded” adds a separate entry of the source.

Key:
humans = details: after a single treatment; cited from earlier work
rat SERT (rSERT) = rat SERT (rSERT) (Rattus norvegicus, UniProt P31652); details: cited from earlier work
mouse VMAT2 (mVMAT2) = mouse VMAT2 (mVMAT2) (Mus musculus, UniProt Q8BRU6); assay: FFN200 two-photon imaging of VMAT2 function in acute mouse brain slices; format: cell-based; details: 2 μM for 30 minutes, FFN200 10 μM, dorsal striatum
hVMAT2 = hVMAT2 (Homo sapiens, UniProt Q05940); assay: FFN206 fluorescent substrate uptake inhibition in hVMAT2-HEK cells; format: cell-based; details: ratio of IC50 values, cell-based fluorometry
SERT [1] = molecular target: SERT (Mus musculus, UniProt Q60857); assay: SERTlight two-photon imaging of SERT function in acute mouse brain slices; format: cell-based; details: 2 μM for 30 minutes, SERTlight 10 μM; SNpr, DS, SSp2/3
VMAT2 = VMAT2 (Rattus norvegicus, UniProt Q01827); assay: [3H]5-HT release from rat brain synaptic vesicles via VMAT2; format: biochemical
SERT [2] = molecular target: SERT (Rattus norvegicus, UniProt P31652); assay: [3H]5-HT release from rat brain synaptosomes via SERT; format: biochemical; details: rat brain synaptosomes
[3] = tested on: other uptake 2 transporters (OCT1, OCT3, PMAT); assay: Fluorescent substrate uptake inhibition at the other uptake 2 transporters; format: cell-based
MAO A = molecular target: T1, MAO A (Homo sapiens, UniProt P21397); assay: MAO A activity; format: biochemical; details: Figure S16
T1 sequence (P21397 1-527): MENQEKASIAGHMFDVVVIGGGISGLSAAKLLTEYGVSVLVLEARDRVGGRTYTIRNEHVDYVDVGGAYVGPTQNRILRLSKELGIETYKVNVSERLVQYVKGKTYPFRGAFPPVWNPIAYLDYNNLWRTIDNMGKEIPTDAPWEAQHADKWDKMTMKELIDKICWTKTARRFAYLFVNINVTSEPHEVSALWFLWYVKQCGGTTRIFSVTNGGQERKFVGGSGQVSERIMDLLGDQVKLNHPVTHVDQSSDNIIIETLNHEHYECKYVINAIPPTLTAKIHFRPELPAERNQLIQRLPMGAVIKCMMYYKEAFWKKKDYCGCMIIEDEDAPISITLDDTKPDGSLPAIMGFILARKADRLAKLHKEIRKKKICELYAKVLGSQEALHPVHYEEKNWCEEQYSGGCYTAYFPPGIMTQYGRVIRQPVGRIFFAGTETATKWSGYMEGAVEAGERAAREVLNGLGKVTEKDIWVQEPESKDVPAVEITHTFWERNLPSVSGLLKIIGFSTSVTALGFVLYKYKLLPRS

Chain of SERT (Rattus norvegicus, UniProt P31652) (P31652 whole entry): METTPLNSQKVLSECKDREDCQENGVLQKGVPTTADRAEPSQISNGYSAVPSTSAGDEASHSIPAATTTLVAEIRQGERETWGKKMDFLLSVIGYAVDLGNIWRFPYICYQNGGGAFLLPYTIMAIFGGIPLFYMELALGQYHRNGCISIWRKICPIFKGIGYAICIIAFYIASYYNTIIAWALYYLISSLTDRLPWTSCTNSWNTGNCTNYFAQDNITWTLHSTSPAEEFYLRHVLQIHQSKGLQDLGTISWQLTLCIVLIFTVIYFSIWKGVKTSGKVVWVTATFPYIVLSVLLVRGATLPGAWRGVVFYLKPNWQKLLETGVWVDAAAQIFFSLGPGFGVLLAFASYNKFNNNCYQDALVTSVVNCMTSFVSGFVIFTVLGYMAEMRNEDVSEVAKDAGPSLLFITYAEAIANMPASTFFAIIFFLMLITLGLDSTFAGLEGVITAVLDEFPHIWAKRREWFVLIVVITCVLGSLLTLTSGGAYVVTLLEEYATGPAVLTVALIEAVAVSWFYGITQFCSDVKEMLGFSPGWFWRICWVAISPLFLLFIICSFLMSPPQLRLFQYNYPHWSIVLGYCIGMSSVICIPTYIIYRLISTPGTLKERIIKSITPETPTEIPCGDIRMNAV
Chain of VMAT2 (Q01827 whole entry): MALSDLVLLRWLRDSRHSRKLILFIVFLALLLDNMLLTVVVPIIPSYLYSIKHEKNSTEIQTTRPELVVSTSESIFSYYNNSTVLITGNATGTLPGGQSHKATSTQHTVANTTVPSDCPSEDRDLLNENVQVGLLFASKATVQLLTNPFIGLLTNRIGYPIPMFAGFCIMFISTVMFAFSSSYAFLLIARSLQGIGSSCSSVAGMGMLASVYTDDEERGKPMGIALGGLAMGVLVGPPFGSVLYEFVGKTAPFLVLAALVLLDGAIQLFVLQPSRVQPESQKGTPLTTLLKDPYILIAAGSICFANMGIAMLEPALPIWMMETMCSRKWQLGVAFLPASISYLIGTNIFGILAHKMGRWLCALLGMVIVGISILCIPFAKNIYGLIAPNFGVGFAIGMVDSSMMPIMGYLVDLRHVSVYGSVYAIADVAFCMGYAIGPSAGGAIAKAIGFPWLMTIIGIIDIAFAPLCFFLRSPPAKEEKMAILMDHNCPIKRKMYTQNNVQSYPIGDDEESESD
Chain of SERT (Mus musculus, UniProt Q60857) (Q60857 whole entry): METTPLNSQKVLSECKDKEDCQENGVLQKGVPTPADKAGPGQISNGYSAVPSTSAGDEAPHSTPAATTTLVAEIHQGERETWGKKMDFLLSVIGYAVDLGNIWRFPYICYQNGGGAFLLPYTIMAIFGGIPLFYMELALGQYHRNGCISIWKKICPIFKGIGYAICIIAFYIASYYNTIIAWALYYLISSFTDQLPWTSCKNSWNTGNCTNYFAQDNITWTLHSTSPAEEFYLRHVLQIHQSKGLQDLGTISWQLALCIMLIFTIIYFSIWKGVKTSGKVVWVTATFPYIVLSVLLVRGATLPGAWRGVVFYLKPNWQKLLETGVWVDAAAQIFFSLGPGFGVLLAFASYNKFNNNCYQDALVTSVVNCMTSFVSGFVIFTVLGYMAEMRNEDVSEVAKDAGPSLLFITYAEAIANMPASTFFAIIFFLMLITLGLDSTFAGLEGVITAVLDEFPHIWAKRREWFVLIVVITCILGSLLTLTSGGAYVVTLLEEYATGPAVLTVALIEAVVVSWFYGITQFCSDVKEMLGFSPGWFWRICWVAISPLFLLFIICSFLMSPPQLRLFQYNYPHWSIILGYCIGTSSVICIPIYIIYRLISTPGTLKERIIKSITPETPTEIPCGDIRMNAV
Chain of mouse VMAT2 (mVMAT2) (Q8BRU6 whole entry): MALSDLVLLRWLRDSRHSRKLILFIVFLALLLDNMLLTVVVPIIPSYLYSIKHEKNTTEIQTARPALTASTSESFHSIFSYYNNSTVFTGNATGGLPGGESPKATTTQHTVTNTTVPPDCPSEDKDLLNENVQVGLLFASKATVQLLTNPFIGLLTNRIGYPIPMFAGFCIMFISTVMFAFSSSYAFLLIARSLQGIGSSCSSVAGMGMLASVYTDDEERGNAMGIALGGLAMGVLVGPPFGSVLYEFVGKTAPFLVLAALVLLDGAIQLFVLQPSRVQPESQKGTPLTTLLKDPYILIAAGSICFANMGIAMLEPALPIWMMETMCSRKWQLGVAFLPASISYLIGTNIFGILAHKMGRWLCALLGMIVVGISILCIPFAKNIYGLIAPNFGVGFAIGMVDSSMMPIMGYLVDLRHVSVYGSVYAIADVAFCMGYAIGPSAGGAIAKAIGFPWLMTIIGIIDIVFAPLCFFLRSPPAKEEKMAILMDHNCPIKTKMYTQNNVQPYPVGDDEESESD
Chain of rat SERT (rSERT) (P31652 whole entry): as the sequence (P31652 whole entry) above
Chain of hVMAT2 (Q05940 whole entry): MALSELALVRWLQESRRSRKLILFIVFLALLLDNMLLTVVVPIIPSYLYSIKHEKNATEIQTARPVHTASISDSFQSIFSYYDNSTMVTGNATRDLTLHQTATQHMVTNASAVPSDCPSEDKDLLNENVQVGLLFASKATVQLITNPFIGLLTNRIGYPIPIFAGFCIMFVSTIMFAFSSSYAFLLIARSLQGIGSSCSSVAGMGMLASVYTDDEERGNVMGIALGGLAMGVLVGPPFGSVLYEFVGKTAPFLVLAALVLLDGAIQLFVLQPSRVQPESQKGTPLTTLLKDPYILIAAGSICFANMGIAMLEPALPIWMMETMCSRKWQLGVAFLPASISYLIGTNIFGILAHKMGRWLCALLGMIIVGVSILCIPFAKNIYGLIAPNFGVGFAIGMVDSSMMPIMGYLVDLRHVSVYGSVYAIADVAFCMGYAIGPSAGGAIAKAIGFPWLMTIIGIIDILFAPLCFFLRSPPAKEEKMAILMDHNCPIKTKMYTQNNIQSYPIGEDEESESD

ibogaine
Remission (humans): 80% | Ratio of binding to uptake inhibitory constants at SERT (rat SERT (rSERT)): ~ 1 | Effect on FFN200 uptake / punctate labeling (mouse VMAT2 (mVMAT2)): strong inhibitory effects; also recorded: completely inhibited FFN200 uptake | Selectivity hVMAT2 over hSERT (hVMAT2): seven-fold more potent at VMAT2 | Effect on SERTlight labeling of 5-HT axons (SERT [1]): did not alter probe uptake; also recorded: had no effect on SERTlight labeling | Concentration at which [3H]5-HT release exceeds Emax of 30% (VMAT2; rat brain synaptic vesicles): > 10 µM | [3H]5-HT Release % Emax via VMAT2 (VMAT2; rat brain vesicular fraction, 5-HT control set as Emax = 100%): < 30% | [3H]5-HT release from preloaded synaptosomes (qualitative) (SERT [2]): No [^3H]5-HT release was observed | [3H]5-HT Release % Emax via SERT (SERT [2]; n = 3): < 30% | [3H]5-HT Release EC50 ± SD via SERT (SERT [2]; n = 3, active releaser: EC50 < 10 μM and Emax > 30%): inactive | Inhibition at the other uptake 2 transporters examined [3]: no inhibition below 10 μM | Activity at MAO A (MAO A): no activity
